Test results: patent US10710986B2, “PD-1/PD-L1 inhibitors” (Gilead Sciences, Inc., priority 2018, dated 2020)

Molecular target: PD-1/PD-L1 (Homo sapiens (Human), UniProt Q9NZQ7)
Assay: PD-1/PD-L1 biochemical protein-protein interaction assay (ALPHA)
Details: 0.3 nM His tagged PD-L1, 2.5 nM biotinylated Fc-PD-1, 60 minutes at 25° C., read-out: IC50 PD-L1-PD1

PD-1/PD-L1, sequence (Q9NZQ7 19-238): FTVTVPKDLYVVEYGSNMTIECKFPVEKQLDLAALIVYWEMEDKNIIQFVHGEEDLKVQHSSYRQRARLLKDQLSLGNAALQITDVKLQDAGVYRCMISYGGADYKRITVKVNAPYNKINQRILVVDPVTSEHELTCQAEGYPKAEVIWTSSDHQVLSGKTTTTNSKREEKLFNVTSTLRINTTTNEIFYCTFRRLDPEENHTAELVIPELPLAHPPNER

Row | SMILES | IC50
1 | COc1nc(-c2cccc(-c3cccc(-c4cnc(CNCCOC(N)=O)c(OC)n4)c3Cl)c2Cl)cnc1CNCCOC(N)=O [compound 454] | 0.064 nM
2 | COc1nc(-c2cccc(-c3cccc(-c4cnc(CN[C@@H](C)CO)c(OC)n4)c3Cl)c2Cl)cnc1CNC[C@@H]1CCC(=O)N1 [compound 346] | 0.323 nM
3 | COc1nc(-c2cccc(-c3cccc(-c4cnc(CN[C@H]5CCOC5)c(OC)n4)c3Cl)c2Cl)cnc1CN[C@H]1CCOC1 [compound 144] | 0.24 nM
4 | CCc1nc(-c2cccc(-c3cccc(-c4cnc(CN5CC6(CCC(=O)N6)C5)c(CC)n4)c3Cl)c2Cl)cnc1CN1CC2(CCC(=O)N2)C1 [compound 84] | 0.189 nM
5 | COc1nc(-c2cccc(-c3cccc(-c4cnc(CN5CC(O)(C6CC6)C5)c(OC)n4)c3Cl)c2Cl)cnc1CN1CC(O)(C2CC2)C1 [compound 548] | 0.665 nM
6 | COc1nc(-c2cccc(-c3cccc(-c4cnc(CN[C@H]5C[C@](C)(O)C5)c(OC)n4)c3Cl)c2Cl)cnc1CNC[C@@H]1CCC(=O)N1 [compound 564] | 0.2 nM
7 | COc1nc(-c2cccc(-c3cccc(-c4cnc(CNCCc5cnccn5)c(OC)n4)c3Cl)c2Cl)cnc1CNCCc1cnccn1 [compound 518] | 0.144 nM
8 | COc1nc(-c2cccc(-c3cccc(-c4cnc(CNC[C@@H]5CCC(=O)N5)c(OC)n4)c3Cl)c2Cl)cnc1CNCC1CC(=O)NC1=O (some centres unmarked) [compound 403] | 0.07 nM
9 | COc1nc(-c2cccc(-c3cccc(-c4cnc(CN[C@H]5C[C@@H](NC(C)=O)C5)c(OC)n4)c3Cl)c2Cl)cnc1CNC[C@@H]1CCC(=O)N1 [compound 362] | 0.074 nM
10 | COc1nc(-c2cccc(-c3cccc(-c4cnc(CN5CC6(CCS6(=O)=O)C5)c(OC)n4)c3Cl)c2Cl)cnc1CNC[C@@H]1CCC(=O)N1 [compound 301] | 0.25 nM
11 | COc1nc(-c2cccc(-c3cccc(-c4cnc(CNC[C@H]5CCC[C@@H]5O)c(OC)n4)c3Cl)c2Cl)cnc1CNC[C@H]1CCC[C@@H]1O [compound 476] | 0.622 nM
12 | COc1nc(-c2cccc(-c3cccc(-c4cnc(CN[C@H](C)[C@@H]5CCC(=O)N5)c(OC)n4)c3Cl)c2Cl)cnc1CNC[C@@H]1CCC(=O)N1 [compound 599] | 0.174 nM
13 | COc1nc(-c2cccc(-c3cccc(-c4cnc(CN5CCCC(F)(CO)C5)c(OC)n4)c3Cl)c2Cl)cnc1CNC[C@@H]1CCC(=O)N1 (some centres unmarked) [compound 261] | 0.128 nM
14 | COc1nc(-c2cccc(-c3cccc(-c4cnc(CNC[C@@H]5CCC(=O)N5)c(OC)n4)c3Cl)c2Cl)ccc1CN1CCC(C(N)=O)CC1 [compound 163] | 0.177 nM
15 | COc1nc(-c2cccc(-c3cccc(-c4cnc5c(CN6CC7(CNC(=O)C7)C6)cn(C)c5n4)c3Cl)c2Cl)cnc1CNC[C@H]1CCC(=O)N1 [compound 605] | 0.113 nM
16 | COc1nc(-c2cccc(-c3cccc(-c4cnc(CN[C@H]5C[C@H](C(C)(C)O)C5)c(OC)n4)c3Cl)c2Cl)cnc1CNC[C@@H]1CCC(=O)N1 [compound 366] | 0.115 nM
17 | COc1nc(-c2cccc(-c3cccc(-c4cnc(CN5CC(O)C5)c(OC)n4)c3Br)c2Cl)cnc1CN1CC(O)C1 [compound 391] | 0.232 nM
18 | COc1nc(-c2cccc(-c3cccc(-c4cnc(CN[C@@H]5COC[C@H]5O)c(OC)n4)c3Cl)c2Cl)cnc1CNC[C@@H]1CCC(=O)N1 [compound 11] | 0.172 nM
19 | COc1nc(-c2cccc(-c3cccc(-c4cnc(CNC5CC6(C5)CN(C(C)=O)C6)c(OC)n4)c3Cl)c2Cl)cnc1CNC[C@H]1CCC(=O)N1 [compound 208] | 0.223 nM

Row | SMILES | IC50
20 | COc1nc(-c2cccc(-c3cccc(-c4cnc(CNCc5cnn(CCO)c5)c(OC)n4)c3Cl)c2Cl)cnc1CNCc1cnn(CCO)c1 [compound 455] | 0.145 nM
21 | COc1nc(-c2cccc(-c3cccc(-c4cnc(CN5CCC6(C5)NC(=O)N(C)C6=O)c(OC)n4)c3Cl)c2Cl)cnc1CNC[C@@H]1CCC(=O)N1 (some centres unmarked) [compound 294] | 0.298 nM
22 | COc1nc(-c2cccc(-c3cccc(-c4cnc(CN(CCO)CCO)c(OC)n4)c3Cl)c2Cl)cnc1CNC[C@@H]1CCC(=O)N1 [compound 522] | 0.064 nM
23 | COc1nc(-c2cccc(-c3cccc(-c4cnc(CN5C6COCC5C6)c(OC)n4)c3Cl)c2Cl)cnc1CNC[C@@H]1CCC(=O)N1 [compound 485] | 0.229 nM
24 | COc1nc(-c2cccc(-c3cccc(-c4cnc(CN5CCC(F)(F)CC5)c(OC)n4)c3Cl)c2Cl)cnc1CNC[C@@H]1CCC(=O)N1 [compound 282] | 1.57 nM
25 | COc1nc(-c2cccc(-c3cccc(-c4cnc(CN5CC[C@@H](NC(C)=O)C5)c(OC)n4)c3Cl)c2Cl)cnc1CNC[C@H]1CCC(=O)N1 [compound 198] | 0.121 nM
26 | COc1nc(-c2cccc(-c3cccc(-c4cnc(CNC[C@@H]5CNC(=O)C5)c(OC)n4)c3Cl)c2Cl)cnc1CNC[C@@H]1CNC(=O)C1 [compound 480] | 0.064 nM
27 | COc1nc(-c2cccc(-c3cccc(-c4cnc(CNC[C@@H]5CCC(=O)N5)c(OC)n4)c3Cl)c2Cl)cnc1CNCC[C@@H]1CNC(=O)C1 [compound 539] | 0.171 nM
28 | COc1nc(-c2cccc(-c3cccc(-c4cnc(CN5CCC(C6CCCO6)C5)c(OC)n4)c3Cl)c2Cl)cnc1CNC[C@@H]1CCC(=O)N1 (some centres unmarked) [compound 409] | 0.124 nM
29 | COc1nc(-c2cccc(-c3cccc(-c4cnc(CN[C@@H]5CNC(=O)C5)c(OC)n4)c3Cl)c2Cl)cnc1CNC[C@H]1CCC(=O)N1 [compound 199] | 0.126 nM
30 | COc1nc(-c2cccc(-c3cccc(-c4cnc(CNC[C@@H]5CCC(=O)N5)c(OC)n4)c3Cl)c2Cl)ccc1CN[C@H]1CCOC1 [compound 171] | 0.208 nM
31 | CN(C)c1nc(-c2cccc(-c3cccc(-c4cnc(CN5CC(O)C5)c(N(C)C)n4)c3Cl)c2Cl)cnc1CN1CC(O)C1 [compound 99] | 0.407 nM
32 | COc1nc(-c2cccc(-c3cccc(-c4cnc(CN5CCC(c6cc[nH]n6)C5)c(OC)n4)c3Cl)c2Cl)cnc1CNC[C@@H]1CCC(=O)N1 (some centres unmarked) [compound 515] | 0.342 nM
33 | COc1nc(-c2cccc(-c3cccc(-c4cnc(CN(CCO)CC(F)(F)F)c(OC)n4)c3Cl)c2Cl)cnc1CNC[C@@H]1CCC(=O)N1 [compound 258] | 0.673 nM
34 | COC1CN(Cc2ncc(-c3cccc(-c4cccc(-c5cnc(CN6CC(OC)C6)c(SC)n5)c4Cl)c3Cl)nc2SC)C1 [compound 87] | 5.88 nM
35 | COc1nc(-c2cccc(-c3cccc(-c4cnc(CNC[C@@H]5CCC(=O)N5)c(OC)n4)c3Cl)c2Cl)cnc1CNCCS(=O)(=O)O [compound 42] | 3.42 nM
36 | COc1nc(-c2cccc(-c3cccc(-c4cnc(CNC[C@@H]5CCC(=O)N5)c(OC)n4)c3Cl)c2Cl)cnc1CNCCc1cn[nH]c1 [compound 49] | 0.356 nM
37 | COc1nc(-c2cccc(-c3cccc(-c4cnc(CN5CC6(CCC(=O)N6)C5)c(OC)n4)c3Cl)c2Cl)cnc1CN1CC(C)(O)C1 [compound 445] | 0.069 nM
38 | CCn1cc(CNCc2ncc(-c3cccc(-c4cccc(-c5cnc(CNCc6cnn(CC)c6)c(OC)n5)c4Cl)c3Cl)nc2OC)cn1 [compound 31] | 0.334 nM

Row | SMILES | IC50
39 | COc1nc(-c2cccc(-c3cccc(-c4cnc(CNC5CN(C(C)=O)C5)c(OC)n4)c3Cl)c2Cl)cnc1CNC[C@@H]1CCC(=O)N1 [compound 191] | 0.143 nM
40 | COc1nc(-c2cccc(-c3cccc(-c4cnc(CN5CC6(CNC(=O)O6)C5)c(OC)n4)c3Cl)c2Cl)cnc1CNC[C@@H]1CCC(=O)N1 [compound 50] | 0.259 nM
41 | COc1nc(-c2cccc(-c3cccc(-c4cnc(CNC[C@@H]5C[C@H]5c5cccnc5)c(OC)n4)c3Cl)c2Cl)cnc1CNC[C@@H]1CCC(=O)N1 [compound 219] | 0.19 nM
42 | COc1nc(-c2cccc(-c3cccc(-c4cnc(CNC[C@@H]5CCC(=O)N5)c(OC)n4)c3Cl)c2Cl)cnc1CNCC1CS(=O)(=O)C1 [compound 311] | 0.24 nM
43 | CNc1nc(-c2cccc(-c3cccc(-c4cnc(CN5CC6(CNC(=O)C6)C5)c(NC)n4)c3Cl)c2Cl)cnc1CN1CC2(CNC(=O)C2)C1 [compound 78] | 0.064 nM
44 | COc1nc(-c2cccc(-c3cccc(-c4cnc(CN5CC6(CNC(=O)C6)C5)c(OC)n4)c3Br)c2Cl)cnc1CN1CC2(CNC(=O)C2)C1 [compound 389] | 0.211 nM
45 | CSc1nc(-c2cccc(-c3cccc(-c4cnc(CN5CC6(CNC(=O)C6)C5)c(SC)n4)c3Cl)c2Cl)cnc1CN1CC2(CNC(=O)C2)C1 [compound 89] | 0.286 nM
46 | COc1nc(-c2cccc(-c3cccc(-c4cnc(C5=NC[C@@H](C)N5)c(OC)n4)c3Cl)c2Cl)cnc1C1=NC[C@@H](C)N1 [compound 129] | 0.064 nM
47 | COc1nc(-c2cccc(-c3cccc(-c4cnc(CN5CC(O)C5)c(OC)n4)c3F)c2Cl)ccc1CN1CC(O)C1 [compound 619] | 0.178 nM
48 | COc1nc(-c2cccc(-c3cccc(-c4cc(C)c(CN5CC6(C5)CN(C(C)=O)C6)c(OC)n4)c3Cl)c2Cl)cnc1CNC[C@@H]1CCC(=O)N1 [compound 653] | 0.064 nM
49 | COc1nc(-c2cccc(-c3cccc(-c4cnc(CN[C@@H]5CC[C@H](O)C5)c(OC)n4)c3Cl)c2Cl)cnc1CNC[C@@H]1CCC(=O)N1 [compound 353] | 0.064 nM
50 | COc1nc(-c2cccc(-c3cccc(-c4cnc(CN5CCNC(=O)C5)c(OC)n4)c3Cl)c2Cl)cnc1CNC[C@@H]1CCC(=O)N1 [compound 41] | 0.083 nM
51 | COc1nc(-c2cccc(-c3cccc(-c4cnc(CN5CCC[C@@H]6C(=O)NC[C@@H]65)c(OC)n4)c3Cl)c2Cl)cnc1CNC[C@@H]1CCC(=O)N1 [compound 542] | 0.392 nM
52 | COc1nc(-c2cccc(-c3cccc(-c4cnc(CN5CCC(c6ccccn6)C5)c(OC)n4)c3Cl)c2Cl)cnc1CNC[C@@H]1CCC(=O)N1 (some centres unmarked) [compound 406] | 0.28 nM
53 | COc1nc(-c2cccc(-c3cccc(-c4ccc5c(CNC[C@@H]6CCC(=O)N6)cn(C)c5n4)c3Cl)c2Cl)cnc1CNC[C@@H]1CCC(=O)N1 [compound 495] | 0.247 nM
54 | CCO[C@H]1C[C@H](NCc2ncc(-c3cccc(-c4cccc(-c5cnc(CNC[C@@H]6CCC(=O)N6)c(OC)n5)c4Cl)c3Cl)nc2OC)C1 [compound 233] | 0.451 nM
55 | COc1nc(-c2cccc(-c3cccc(-c4cnc(CN5CC(C(C)(C)O)C5)c(OC)n4)c3Cl)c2Cl)cnc1CN1CC(C(C)(C)O)C1 [compound 478] | 0.064 nM
56 | COC[C@H]1CCN1Cc1ncc(-c2cccc(-c3cccc(-c4cnc(CNC[C@@H]5CCC(=O)N5)c(OC)n4)c3Cl)c2Cl)nc1OC [compound 309] | 0.178 nM
